This note sets out measurements from patent US20260305610A1, “TRIAZOLE COMPOUND, AND PREPARATION METHOD THEREFOR, HERBICIDAL COMPOSITION AND USE THEREOF” (QINGDAO KINGAGROOT CHEMICAL COMPOUND CO., LTD., priority 2023, published 2026).

The test system of one series is major crops. Put plainly: Pre-emergence test experiment (crops). Set-up: key: 9: completely dead; 8: growth control rate is greater than or equal to 90% and less than 100%; 7: growth control rate is greater than or equal to 80% and less than 90%; 6: growth control rate is greater than or equal to 70% and less than 80%; growth control rate is greater than or equal to 50% and less than 70%; 4: growth control rate is greater than or equal to 30% and less than 50%; growth control rate is greater than or equal to 20% and less than 30%; growth control rate is greater than or equal to 10% and less than 20%; growth control rate is less than 10%; 0: no effect. The following applies: 30 g a.i./ha. The class given is in vivo.

Series [1] deals with monocotyledonous and dicotyledonous weeds. Description: Pre-emergence test experiment (weeds). The following applies: 30 g a.i./ha. Set-up: key: 9: completely dead; 8: growth control rate is greater than or equal to 90% and less than 100%; 7: growth control rate is greater than or equal to 80% and less than 90%; 6: growth control rate is greater than or equal to 70% and less than 80%; growth control rate is greater than or equal to 50% and less than 70%; 4: growth control rate is greater than or equal to 30% and less than 50%; growth control rate is greater than or equal to 20% and less than 30%; growth control rate is greater than or equal to 10% and less than 20%; growth control rate is less than 10%; 0: no effect. The class given is in vivo.

Each structure is given as a SMILES string.

For `CCc1ccc(-n2cnc(C(F)(F)F)n2)nc1Oc1ccc(F)c(OC(F)F)c1` [Compound 132], in the series on major crops, the “Pre-emergence plant damage level (growth control rate) on Corn” value (shortened to “Pre-emergence plant damage level … on Corn”) is 0, the “Pre-emergence plant damage level (growth control rate) on Cotton” value (from here on “Pre-emergence plant damage level … on Cotton”) turned out to be 0 and the “Pre-emergence plant damage level (growth control rate) on Soybean” value (shortened to “Pre-emergence plant damage level … on Soybean”) is on record as 0. In series [1], the “Pre-emergence activity level (growth control rate) on Amaranthus retroflexus” value is given as 9, the “Pre-emergence activity level (growth control rate) on Descurainia sophia” value worked out at 9, the “Pre-emergence activity level (growth control rate) on Digitaria sanguinalis” value worked out at 9 and the “Pre-emergence activity level (growth control rate) on Setaria viridis” value was 9. In series [1], the “Pre-emergence activity level (growth control rate) on Solanum nigrum” value came out at 9 and the “Pre-emergence activity level (growth control rate) on Veronica” value (“Pre-emergence activity level … on Veronica” for short) worked out at 9.

Turning to `CCc1ccc(-n2cnc(C(F)(F)F)n2)nc1Oc1cccc(OC(F)F)c1` [Compound 133], in the series with major crops, the “Pre-emergence plant damage level … on Corn” value is recorded as 0, the “Pre-emergence plant damage level … on Cotton” value was 0 and the “Pre-emergence plant damage level … on Soybean” value came to 0. In addition, in series [1], the “Pre-emergence activity level (growth control rate) on Amaranthus retroflexus” value worked out at 9, the “Pre-emergence activity level (growth control rate) on Descurainia sophia” value worked out at 9, the “Pre-emergence activity level (growth control rate) on Digitaria sanguinalis” value was determined as 9 and the “Pre-emergence activity level (growth control rate) on Setaria viridis” value turned out to be 9. Also, in series [1], the “Pre-emergence activity level (growth control rate) on Solanum nigrum” value came out at 9 and the “Pre-emergence activity level … on Veronica” value is given as 9.

Regarding `CCc1ccc(-n2cnc(C(F)(F)F)n2)nc1Oc1ccc(F)c(C(F)(F)F)c1` [Compound 135], in the series with major crops, the “Pre-emergence plant damage level … on Corn” value was 0, the “Pre-emergence plant damage level … on Cotton” value is given as 0 and the “Pre-emergence plant damage level … on Soybean” value is recorded as 0. Also, in series [1], the “Pre-emergence activity level (growth control rate) on Amaranthus retroflexus” value stood at 9, the “Pre-emergence activity level (growth control rate) on Descurainia sophia” value is 9, the “Pre-emergence activity level (growth control rate) on Digitaria sanguinalis” value is given as 9 and the “Pre-emergence activity level (growth control rate) on Setaria viridis” value is given as 9. Moreover, in series [1], the “Pre-emergence activity level (growth control rate) on Solanum nigrum” value worked out at 9 and the “Pre-emergence activity level … on Veronica” value is reported as 9.

Consider `CCc1ccc(-n2cnc(C(F)(F)F)n2)nc1Oc1ccc(F)c(OC(F)(F)F)c1` [Compound 136], for which, in the series with major crops, the “Pre-emergence plant damage level … on Corn” value is given as 0, the “Pre-emergence plant damage level … on Cotton” value is listed as 0 and the “Pre-emergence plant damage level … on Soybean” value is on record as 0. Further, in series [1], the “Pre-emergence activity level (growth control rate) on Amaranthus retroflexus” value is given as 9, the “Pre-emergence activity level (growth control rate) on Descurainia sophia” value stood at 9, the “Pre-emergence activity level (growth control rate) on Digitaria sanguinalis” value stood at 9 and the “Pre-emergence activity level (growth control rate) on Setaria viridis” value turned out to be 9. In addition, in series [1], the “Pre-emergence activity level (growth control rate) on Solanum nigrum” value came out at 9 and the “Pre-emergence activity level … on Veronica” value is on record as 9.

On to `CCc1ccc(-n2cnc(C(F)(F)F)n2)nc1Oc1cccc(C(F)F)c1` [Compound 137], for which, in the series on major crops, the “Pre-emergence plant damage level … on Corn” value worked out at 0, the “Pre-emergence plant damage level … on Cotton” value came to 0 and the “Pre-emergence plant damage level … on Soybean” value is on record as 0. Besides, in series [1], the “Pre-emergence activity level (growth control rate) on Amaranthus retroflexus” value worked out at 9; the “Pre-emergence activity level (growth control rate) on Descurainia sophia” value is 9; the “Pre-emergence activity level (growth control rate) on Digitaria sanguinalis” value was 8 (growth control rate is greater than or equal to 90% and less than 100%); the “Pre-emergence activity level (growth control rate) on Setaria viridis” value came to 9. In series [1], the “Pre-emergence activity level (growth control rate) on Solanum nigrum” value worked out at 9 and the “Pre-emergence activity level … on Veronica” value is 9.

With `COCc1ccc(-n2cnc(C(F)(F)F)n2)nc1Oc1cccc(Cl)c1` [Compound 139], in the series on major crops, the “Pre-emergence plant damage level … on Corn” value worked out at 0, the “Pre-emergence plant damage level … on Cotton” value was found to be 0 and the “Pre-emergence plant damage level … on Soybean” value is 0. For the same compound, in series [1], the “Pre-emergence activity level (growth control rate) on Amaranthus retroflexus” value was found to be 9, the “Pre-emergence activity level (growth control rate) on Descurainia sophia” value is listed as 9, the “Pre-emergence activity level (growth control rate) on Digitaria sanguinalis” value was determined as 9 and the “Pre-emergence activity level (growth control rate) on Setaria viridis” value came out at 9. In series [1], the “Pre-emergence activity level (growth control rate) on Solanum nigrum” value is 9 and the “Pre-emergence activity level … on Veronica” value amounted to 9.

With `COCc1ccc(-n2cnc(C(F)(F)C(F)(F)F)n2)nc1Oc1cncc(C(F)(F)F)c1` [Compound 140], in the series on major crops, the “Pre-emergence plant damage level … on Corn” value amounted to 0, the “Pre-emergence plant damage level … on Cotton” value is 0 and the “Pre-emergence plant damage level … on Soybean” value amounted to 0. Further, in series [1], the “Pre-emergence activity level (growth control rate) on Descurainia sophia” value is on record as 9; the “Pre-emergence activity level (growth control rate) on Digitaria sanguinalis” value is 8 (growth control rate is greater than or equal to 90% and less than 100%); the “Pre-emergence activity level (growth control rate) on Setaria viridis” value was 9; the “Pre-emergence activity level (growth control rate) on Solanum nigrum” value is 9. Further, the “Pre-emergence activity level … on Veronica” value in series [1] turned out to be 9.

`COCc1ccc(-n2cnc(C(F)(F)C(F)(F)F)n2)nc1Oc1cccc(C(F)(F)F)c1` [Compound 141]: in the series with major crops, the “Pre-emergence plant damage level … on Corn” value is given as 0, the “Pre-emergence plant damage level … on Cotton” value worked out at 0 and the “Pre-emergence plant damage level … on Soybean” value was 0. In series [1], the “Pre-emergence activity level (growth control rate) on Amaranthus retroflexus” value was 8 (growth control rate is greater than or equal to 90% and less than 100%); the “Pre-emergence activity level (growth control rate) on Descurainia sophia” value is reported as 9; the “Pre-emergence activity level (growth control rate) on Digitaria sanguinalis” value is on record as 9; the “Pre-emergence activity level (growth control rate) on Setaria viridis” value is 8 (growth control rate is greater than or equal to 90% and less than 100%). Further, in series [1], the “Pre-emergence activity level (growth control rate) on Solanum nigrum” value was determined as 9 and the “Pre-emergence activity level … on Veronica” value came to 9.

`COCc1ccc(-n2cnc(C(F)(F)F)n2)nc1Oc1cncc(C(F)(F)F)c1` [Compound 142]: in the series with major crops, the “Pre-emergence plant damage level … on Corn” value worked out at 0, the “Pre-emergence plant damage level … on Cotton” value is 0 and the “Pre-emergence plant damage level … on Soybean” value was determined as 0. For the same compound, in series [1], the “Pre-emergence activity level (growth control rate) on Amaranthus retroflexus” value is 9, the “Pre-emergence activity level (growth control rate) on Descurainia sophia” value came out at 9, the “Pre-emergence activity level (growth control rate) on Digitaria sanguinalis” value is 9 and the “Pre-emergence activity level (growth control rate) on Setaria viridis” value came out at 9. Besides, the “Pre-emergence activity level (growth control rate) on Solanum nigrum” value in series [1] turned out to be 9.

Regarding `COCc1ccc(-n2cnc(C(F)(F)F)n2)nc1Oc1ccc(F)c(C(F)(F)F)c1` [Compound 143], in the series on major crops, the “Pre-emergence plant damage level … on Corn” value was determined as 0, the “Pre-emergence plant damage level … on Cotton” value was 0 and the “Pre-emergence plant damage level … on Soybean” value is 0. In addition, in series [1], the “Pre-emergence activity level (growth control rate) on Amaranthus retroflexus” value is 9; the “Pre-emergence activity level (growth control rate) on Descurainia sophia” value is recorded as 9; the “Pre-emergence activity level (growth control rate) on Digitaria sanguinalis” value was 8 (growth control rate is greater than or equal to 90% and less than 100%); the “Pre-emergence activity level (growth control rate) on Setaria viridis” value was found to be 9. In addition, in series [1], the “Pre-emergence activity level (growth control rate) on Solanum nigrum” value came out at 9 and the “Pre-emergence activity level … on Veronica” value is given as 9.

In the case of `COCc1ccc(-n2cnc(C(F)(F)F)n2)nc1Oc1cccc(C(F)F)c1` [Compound 144], in the series on major crops, the “Pre-emergence plant damage level … on Corn” value was 0, the “Pre-emergence plant damage level … on Cotton” value worked out at 0 and the “Pre-emergence plant damage level … on Soybean” value came to 0. For the same compound, in series [1], the “Pre-emergence activity level (growth control rate) on Amaranthus retroflexus” value was found to be 9; the “Pre-emergence activity level (growth control rate) on Descurainia sophia” value is recorded as 9; the “Pre-emergence activity level (growth control rate) on Digitaria sanguinalis” value was 8 (growth control rate is greater than or equal to 90% and less than 100%); the “Pre-emergence activity level (growth control rate) on Setaria viridis” value stood at 9. In addition, in series [1], the “Pre-emergence activity level (growth control rate) on Solanum nigrum” value stood at 9 and the “Pre-emergence activity level … on Veronica” value is recorded as 9.

Turning to `COCc1ccc(-n2cnc(C(F)(F)F)n2)nc1Oc1cccc(OC(F)(F)F)c1` [Compound 145], in the series with major crops, the “Pre-emergence plant damage level … on Corn” value is on record as 0, the “Pre-emergence plant damage level … on Cotton” value amounted to 0 and the “Pre-emergence plant damage level … on Soybean” value is recorded as 0. Moreover, in series [1], the “Pre-emergence activity level (growth control rate) on Amaranthus retroflexus” value stood at 9, the “Pre-emergence activity level (growth control rate) on Descurainia sophia” value is 9, the “Pre-emergence activity level (growth control rate) on Digitaria sanguinalis” value is 9 and the “Pre-emergence activity level (growth control rate) on Setaria viridis” value was determined as 9. In series [1], the “Pre-emergence activity level (growth control rate) on Solanum nigrum” value stood at 9 and the “Pre-emergence activity level … on Veronica” value was determined as 9.

For the compound `COCc1ccc(-n2cnc(C(F)(F)F)n2)nc1Oc1ccc(F)c(OC(F)(F)F)c1` [Compound 146], in the series on major crops, the “Pre-emergence plant damage level … on Corn” value was 0, the “Pre-emergence plant damage level … on Cotton” value is 0 and the “Pre-emergence plant damage level … on Soybean” value amounted to 0. Further, in series [1], the “Pre-emergence activity level (growth control rate) on Amaranthus retroflexus” value worked out at 9; the “Pre-emergence activity level (growth control rate) on Descurainia sophia” value is 9; the “Pre-emergence activity level (growth control rate) on Digitaria sanguinalis” value was 8 (growth control rate is greater than or equal to 90% and less than 100%); the “Pre-emergence activity level (growth control rate) on Setaria viridis” value stood at 9. For the same compound, in series [1], the “Pre-emergence activity level (growth control rate) on Solanum nigrum” value was 9 and the “Pre-emergence activity level … on Veronica” value came to 9.
